Reference: patent publication US20230285405A1, “Pharmaceuticals for Treating or Preventing Nidoviruses and Picornaviruses” (priority 2020, published 2023)
Counter-ions that a name gives are not always drawn. Like-named read-outs stand apart in the source and are kept apart here.

Tests used:
OC43 = experiment: Drug screening: OC43 nucleoprotein staining in infected A549-mRuby cells; type: cell-based, human beta coronavirus OC43
Method: A549-mRuby cells were seeded (3,000 cells per well) in nine 384-well plates using Multidrop combi. Cells were seeded in a final volume of 30 μl with DMEM+10% BCS. The following day, 20 μl of OC43 were added (MOI 0.3) and incubated at 33° C., 5% CO2 for 1 hour. 50 nl from the Selleck FDA-approved drug library (cat #L1300, Selleck) were added (1:1,000 dilution). Two columns (32 wells) were left uninfected and two columns were treated with DMSO and virus (no drug control). Cells were imaged using the IncuCyte S3 to measure cell numbers at day 0. Cells were incubated for 4 days at 33° C., 5% CO2 and were stained for OC43 nucleoprotein. All the following steps were performed at room temperature. Cells were fixed in 50 μl 4% PFA/PBS for 15 min, blocked with 50 μl 10% BSA+0.5% Triton X-100 in PBS for 30 minutes, stained with 50 μl anti-OC43 (cat #MAB9013, Milipore) diluted 1:2,000 in 2% BSA+0.1% Triton X-100 in PBS for 1 hour, washed with 50 μl PBS three times, stained with anti-mouse-AlexaFluor488 diluted 1:1,000 in 2% BSA+0.1% Triton X-100 in PBS for 1 hour, washed with 50 μl PBS three times and imaged on the IncuCyte S3 (day 4). The screen was performed twice.
(§1) The following parameters were extracted from the images: number of cells at day 0, number of cells at day 4 and total OC43 staining intensity at day 4. For analysis, OC43 staining intensity was normalized to the number of cells in the well and further normalized to the mean of the no drug controls, which was set to 100. […] For each plate, a drug was considered as a putative hit if it reduced OC43 staining by over 3 standard deviations from the mean of the no drug controls. Drugs were considered hits if they were not toxic and reduced OC43 staining by over 3 standard deviations in both repeats.
(§2) A library of 1,900 clinically used drugs was screened, the drugs either approved for human use or having extensive safety data in humans (Phase 2 or 3 clinical trials), for their ability to inhibit OC43 infection of the human lung epithelial cell line A549 (expressing an H2B-mRuby nuclear reporter). One day after plating, cells were infected at an MOI of 0.3, incubated at 33° C. for 1 hour and drugs were added to a final concentration of 10 μM. Cells were then incubated at 33° C. for 4 days, fixed and stained for the presence of the viral nucleoprotein. The cells were imaged at day 0 (following drug addition) and day 4 (after staining) to determine the drugs effect on cell growth and OC43 infection.

A549-mRuby cells = experiment: Drug screening: effect on cell growth (cell number day 4 / day 0); conditions: 10 μM drug; for Growth_1: number of cells at day 4 divided by number of cells at day 0 / toxic_1: repeat #1; for Growth_2: number of cells at day 4 divided by number of cells at day 0 / toxic_2: repeat #2
Method: A549-mRuby cells were seeded (3,000 cells per well) in nine 384-well plates using Multidrop combi. Cells were seeded in a final volume of 30 μl with DMEM+10% BCS. The following day, 20 μl of OC43 were added (MOI 0.3) and incubated at 33° C., 5% CO2 for 1 hour. 50 nl from the Selleck FDA-approved drug library (cat #L1300, Selleck) were added (1:1,000 dilution). Two columns (32 wells) were left uninfected and two columns were treated with DMSO and virus (no drug control). Cells were imaged using the IncuCyte S3 to measure cell numbers at day 0. Cells were incubated for 4 days at 33° C., 5% CO2 and were stained for OC43 nucleoprotein. All the following steps were performed at room temperature. […] The screen was performed twice.
as §1, §2

[1] = Betacoronavirus 1, OC43, 96 h, 10 μM drug, MOI 0.3, 4 days, normalized to no-drug controls in the same plate, repeat #1, read-out: OC43_1: % staining of OC43 in screen repeat #1
[2] = Betacoronavirus 1, OC43, 96 h, 10 μM drug, MOI 0.3, 4 days, normalized to no-drug controls in the same plate, repeat #2, read-out: OC43_2: % staining of OC43 in screen repeat #2
[3] = Betacoronavirus 1, OC43, 96 h, read-out: OC43_mean
[4] = Betacoronavirus 1, OC43, 96 h, 10 μM drug, MOI 0.3, 4 days, OC43 staining normalized to no-drug controls, mean of the two screen repeats, read-out: OC43_mean

| SMILES | hit_1 (OC43; 10 μM drug, repeat #1) | hit_2 (OC43; 10 μM drug, repeat #2) | activity at 10 µM (OC43; [1]) | activity at 10 µM (OC43; [2]) | activity at 10 µM (OC43; [3]) | Growth_1: number of cells at day 4 divided by number of cells at day 0 (A549-mRuby cells) | toxic_1 (A549-mRuby cells) | Growth_2: number of cells at day 4 divided by number of cells at day 0 (A549-mRuby cells) | toxic_2 (A549-mRuby cells) | activity at 10 µM (OC43; [4]) | activity at 10 µM (OC43; Betacoronavirus 1, OC43, 96 h, read-out: OC43_1: % staining of OC43 in screen repeat #1) | activity at 10 µM (OC43; Betacoronavirus 1, OC43, 96 h, read-out: OC43_2: % staining of OC43 in screen repeat #2) | activity at 10 µM (OC43; Betacoronavirus 1, 96 h, 10 μM drug, MOI 0.3, 4 days, OC43 staining normalized to no-drug controls, mean of the two screen repeats, read-out: OC43_mean) |
| --- | --- | --- | --- | --- | --- | --- | --- | --- | --- | --- | --- | --- | --- |
| CN(C)CCCC1(c2ccc(F)cc2)OCc2cc(C#N)ccc21 (stereo not drawn) [Citalopram HBr] | 1 | 1 | 20.4% | 44.4% | 32.4% | 5.1 | 0 | 5.1 | 0 |  |  |  |  |
| CN(C)CCCN1c2ccccc2CCc2ccc(Cl)cc21.O [Clomipramine HCl] | 1 | 1 | 13.9% | 21.6% | 17.7% | 2.6 | 0 | 3.8 | 0 |  |  |  |  |
| CN1CCN(C2=Nc3cc(Cl)ccc3Nc3ccccc32)CC1 [Clozapine] | 1 | 1 | 15.8% | 46.9% |  | 4.6 | 0 | 4.3 | 0 | 31.3% |  |  |  |
| CC(C)c1nc(CN(C)C(=O)N[C@@H](CCN2CCOCC2)C(=O)N[C@H](CC[C@H](Cc2ccccc2)NC(=O)OCc2cncs2)Cc2ccccc2)cs1 [Cobicistat (GS-9350), Cobicistat] | 1 | 1 | 23% | 20.7% |  | 4.9 | 0 | 5.3 | 0 | 21.8% |  |  |  |
| CN(C)CCC=C1c2ccccc2C=Cc2ccccc21 [Cyclobenzaprine HCl] | 1 | 1 | 45.2% | 47.7% |  | 3.3 | 0 | 2.1 | 0 | 46.5% |  |  |  |
| CN1CCC(=C2c3ccccc3C=Cc3ccccc32)CC1 [Cyproheptadine HCl] | 1 | 1 | 22.8% | 31.2% |  | 3.8 | 0 | 3.0 | 0 | 27% |  |  |  |
| CC(C)(C)c1nc(-c2cccc(NS(=O)(=O)c3c(F)cccc3F)c2F)c(-c2ccnc(N)n2)s1 [Dabrafenib (GSK2118436), Dabrafenib] | 1 | 1 | 36.3% | 47% |  | 3.9 | 0 | 5.5 | 0 | 41.6% |  |  |  |
| CN[C@H]1C(=O)N[C@@H]2Cc3ccc(cc3)Oc3cc4cc(c3O[C@@H]3O[C@H](C(=O)O)[C@@H](O)[C@H](O)[C@H]3NC(=O)CCCCCCCCC(C)C)Oc3ccc(cc3Cl)[C@@H](O)[C@@H]3NC(=O)[C@H](NC(=O)[C@@H]4NC(=O)[C@@H](NC2=O)c2cc(cc(O)c2Cl)Oc2cc1ccc2O)c1ccc(O)c(c1)-c1c(O[C@H]2O[C@H](CO)[C@@H](O)[C@H](O)[C@@H]2O)cc(O)cc1[C@@H](C(=O)NCCCN(C)C)NC3=O [Dalbavancin] | 1 | 1 |  |  | 32.5% | 5.8 | 0 | 6.2 | 0 |  | 25.7% | 39.2% |  |
| NC(=O)C(c1ccccc1)(c1ccccc1)[C@@H]1CCN(CCc2ccc3c(c2)CCO3)C1 [Darifenacin HBr] | 1 | 1 | 14.6% | 34.8% |  | 5.2 | 0 | 3.4 | 0 | 24.7% |  |  |  |
| CNCCCN1c2ccccc2CCc2ccccc21 [Desipramine Hydrochloride] | 1 | 1 | 20% | 23.7% |  | 4.4 | 0 | 3.9 | 0 | 21.8% |  |  |  |
| O=C(Nc1ccccc1)OCC(CN1CCCCC1)OC(=O)Nc1ccccc1 (stereo not drawn) [Diperodon HCl] | 1 | 1 | 24.2% | 61.6% |  | 4.6 | 0 | 4.4 | 0 | 42.9% |  |  |  |
| CN1CCC(OC(c2ccccc2)c2ccccc2)CC1 [Diphenylpyraline HCl] | 1 | 1 | 33.2% | 51.6% | 42.4% | 6.0 | 0 | 4.2 | 0 |  |  |  |  |
| COc1cc2nc(N3CCN(C(=O)C4COc5ccccc5O4)CC3)nc(N)c2cc1OC (stereo not drawn) [Doxazosin Mesylate] | 1 | 1 | 50.1% | 9.2% |  | 5.2 | 0 | 4.9 | 0 | 29.7% |  |  |  |
| CN(C)CCC=C1c2ccccc2COc2ccccc21 [Doxepin HCl] | 1 | 1 | 29.2% | 36.1% |  | 4.9 | 0 | 5.7 | 0 | 32.6% |  |  |  |
| COc1cc2c(cc1OC)CN(CCc1ccc(NC(=O)c3cccc4c(=O)c5cccc(OC)c5[nH]c34)cc1)CC2 [Elacridar (GF120918), Elacridar] | 1 | 1 | 24.4% | 38.3% |  | 4.6 | 0 | 5.8 | 0 | 31.4% |  |  |  |
| CCCCCCCC(=O)N[C@H](CN1CCCC1)[C@H](O)c1ccc2c(c1)OCCO2 [Eliglustat] | 1 | 1 | 22.7% | 20.4% |  | 5.5 | 0 | 4.8 | 0 |  |  |  | 21.5% |
